Values quoted from earlier work, collected in patent US8697633B2, “Dissolution of arterial plaque” (AtheraNova Operations, Inc., priority 2005, dated 2014).

Tests used:
[1] = tested on: atherosclerotic plaque; settings: 40 mg/day
[2] = tested on: atherosclerotic plaque; settings: dietary HDCA, relative to mice not provided HDCA

Row | Structure (SMILES) | modulation of LDL, HDL, and triglyceride levels [1] | reduction of normalized total atheroma volume ([1]; after 2 years, SD=11.1) | reduction of plaque volume in the most diseased segments of vessels ([1]; after 2 years, SD=13.7) | rate of formation of atherosclerotic plaque [2]
1 | CC(C)c1nc(N(C)S(C)(=O)=O)nc(-c2ccc(F)cc2)c1/C=C/[C@@H](O)C[C@@H](O)CC(=O)O [rosuvastatin] | particularly effective | 6.7% | 8.5% | 
2 | C[C@H](CCC(=O)O)[C@H]1CC[C@H]2[C@@H]3C[C@H](O)[C@@H]4C[C@H](O)CC[C@]4(C)[C@H]3CC[C@]12C [HDCA, hyodeoxycholic acid] |  |  |  | reduced rate of formation of atherosclerotic plaque
